Experimental data: patent US7598258B2, “Quinoline derivatives and quinazoline derivatives inhibiting autophosphorylation of macrophage colony stimulating factor receptor” (Kirin Beer Kabushiki Kaisha, priority 2002, dated 2009)

Target: T1, Human KDR (Homo sapiens, UniProt P35968)
T1 construct: expressed in transfected cells; host or cells: NIH3T3 cells (mouse fibroblasts)
Test: Inhibition of KDR phosphorylation in human KDR-transfected NIH3T3 cells (ELISA)
Type: cell-based
Settings: for Selection ratio (KDR phosphorylation IC50 / c-fms phosphorylation IC50): class 0-3; for IC50: human KDR-transfected NIH3T3 cells, VEGF 100 ng/ml, ELISA, read-out: KDR phosphorylation 50% inhibitory concentration (IC50)
Experimental: Human KDR-transfected NIH3T3 cells (Sawano A et al., Cell Growth & Differentiation, 7, 213-221 (1996)) were cultured in a DMEM medium containing 10% fetal calf serum (purchased from GIBCO BRL) within a 5% carbon dioxide incubator until 50 to 70% confluent. The harvested cells were seeded into wells, containing the same medium, in a collagen type 1 coat 96-well flat-bottom plate in an amount of 1.5×10^4 per well, and cultured at 37° C. overnight. The medium was replaced with a 0.1% fetal calf serum-containing DMEM medium. The test compound dissolved in dimethyl sulfoxide was added to each well, and the cultivation was continued at 37° C. for additional one hr. A human recombinant vascular endothelial growth factor (hereinafter abbreviated to “VEGF”) was added to a final concentration of 100 ng/ml, followed by stimulation of cells at 37° C. for 2 min. The medium was removed, and the cells were washed with phosphate buffered saline (pH 7.4). A solubilization buffer (50 μl) (20 mM HEPES (pH 7.4), 150 mM NaCl, 0.2% Triton X-100, 10% glycerol, 5 mM sodium orthovanadylate, 5 mM disodium ethylenediaminetetraacetate, and 2 mM Na4P2O7) was then added thereto. The mixture was shaken at 4° C. for 2 hr to prepare a cell extract.
Separately, phosphate buffered saline (50 μl, pH 7.4) containing 5 μg/ml of anti-phospho-tyrosine antibody (PY20; purchased from Transduction Laboratories) was added to a microplate for ELISA (Maxisorp; purchased from NUNC), followed by standing at 4° C. overnight to be immobilized on the wells. After washing of the plate, 300 μl of a blocking solution was added, followed by standing at room temperature for 2 hr to perform blocking. After washing, the whole cell extract was transferred and was allowed to stand at 4° C. overnight. After washing, an anti-KDR antibody (purchased from Santa Cruz Biotechnology) was allowed to react at room temperature for one hr. Further, after washing, a peroxidase-labeled anti-rabbit Ig antibody (purchased from Amersham) was allowed to react at room temperature for one hr. After washing, a chromophoric substrate for peroxidase (purchased from Sumitomo Bakelite Co., Ltd.) was added thereto to initiate a reaction. After a suitable level of color development, a reaction termination solution was added to stop the reaction, and the absorbance at 450 nm was measured with a microplate reader. The KDR phosphorylation activity for each well was determined by presuming the absorbance without the addition of the test compound and with the addition of VEGF to be 100% KDR phosphorylation activity and the absorbance without the addition of the test compound and VEGF to be 0% KDR phosphorylation activity. The concentration of the test compound was varied on several levels, the KDR phosphorylation inhibitory rate was determined for each case, and the concentration of the test compound necessary for inhibiting 50% of KDR phosphorylation (IC50) was calculated.

T1 sequence (P35968 20-1356): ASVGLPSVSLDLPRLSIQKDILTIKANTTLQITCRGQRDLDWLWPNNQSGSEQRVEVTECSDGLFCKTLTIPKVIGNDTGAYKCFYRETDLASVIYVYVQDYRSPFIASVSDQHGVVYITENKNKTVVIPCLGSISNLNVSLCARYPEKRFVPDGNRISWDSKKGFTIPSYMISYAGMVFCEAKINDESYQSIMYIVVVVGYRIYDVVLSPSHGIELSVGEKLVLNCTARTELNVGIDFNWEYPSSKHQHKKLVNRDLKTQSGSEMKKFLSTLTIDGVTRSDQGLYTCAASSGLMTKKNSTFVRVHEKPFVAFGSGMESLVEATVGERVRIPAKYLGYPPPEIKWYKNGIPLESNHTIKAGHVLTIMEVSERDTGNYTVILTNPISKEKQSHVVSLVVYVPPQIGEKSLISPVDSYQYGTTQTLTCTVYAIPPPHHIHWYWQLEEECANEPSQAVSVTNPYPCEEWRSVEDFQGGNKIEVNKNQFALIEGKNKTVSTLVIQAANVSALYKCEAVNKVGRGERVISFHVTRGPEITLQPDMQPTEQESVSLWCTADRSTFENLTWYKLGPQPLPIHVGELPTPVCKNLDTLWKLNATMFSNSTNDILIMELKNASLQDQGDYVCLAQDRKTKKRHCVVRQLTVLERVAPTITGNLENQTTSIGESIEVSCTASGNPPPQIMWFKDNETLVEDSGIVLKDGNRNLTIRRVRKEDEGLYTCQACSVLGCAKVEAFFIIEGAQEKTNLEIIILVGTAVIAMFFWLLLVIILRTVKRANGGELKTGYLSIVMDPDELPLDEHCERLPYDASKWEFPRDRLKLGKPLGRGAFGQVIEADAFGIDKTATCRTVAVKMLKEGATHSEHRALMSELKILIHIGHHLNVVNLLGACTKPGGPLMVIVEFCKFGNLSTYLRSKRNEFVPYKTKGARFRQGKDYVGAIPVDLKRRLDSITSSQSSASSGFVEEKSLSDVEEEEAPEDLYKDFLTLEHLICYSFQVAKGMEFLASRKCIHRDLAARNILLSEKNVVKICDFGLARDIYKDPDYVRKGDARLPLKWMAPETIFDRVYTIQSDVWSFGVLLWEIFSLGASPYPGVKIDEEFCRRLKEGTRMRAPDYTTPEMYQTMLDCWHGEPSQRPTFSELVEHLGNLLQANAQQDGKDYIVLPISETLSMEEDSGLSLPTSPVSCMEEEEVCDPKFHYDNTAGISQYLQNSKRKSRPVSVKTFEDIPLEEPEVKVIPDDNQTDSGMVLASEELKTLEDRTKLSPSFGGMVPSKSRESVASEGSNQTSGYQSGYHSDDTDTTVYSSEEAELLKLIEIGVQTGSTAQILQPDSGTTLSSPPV

SMILES	IC50	Selection ratio (KDR phosphorylation IC50 / c-fms phosphorylation IC50)
COc1cc2nccc(Oc3ccc(NC(=O)N[C@H](C)c4cccc(Br)c4)cc3Cl)c2cc1OC [Example 57, N-[(1R)-1-(3-Bromophenyl)ethyl]-N′-{3-chloro-4-[(6,7-dimethoxy-4-quinolyl)oxy]phenyl}urea]	3.6 nM	0 (KDR phosphorylation 50% inhibitory concentration [μM]/c-fms phosphorylation 50% inhibitory concentration [μM] was less than 5)
COc1cc2nccc(Oc3ccc(NC(=O)N[C@H](C)c4cccc(Br)c4)c(C)c3)c2cc1OC [Example 58, N-[(1R)-1-(3-Bromophenyl)ethyl]-N′-{4-[(6,7-dimethoxy-4-quinolyl)oxy]-2-methylphenyl}urea]	2.1 nM	0 (KDR phosphorylation 50% inhibitory concentration [μM]/c-fms phosphorylation 50% inhibitory concentration [μM] was less than 5)
COc1cc(Oc2ccnc3cc(OC)c(OC)cc23)ccc1NC(=O)N[C@H](C)c1cccc(Br)c1 [Example 59, N-[(1R)-1-(3-Bromophenyl)ethyl]-N′-{4-[(6,7-dimethoxy-4-quinolyl)oxy]-2-methoxyphenyl}urea]	8.7 nM	0 (KDR phosphorylation 50% inhibitory concentration [μM]/c-fms phosphorylation 50% inhibitory concentration [μM] was less than 5)
COc1cc2nccc(Oc3ccc(NC(=O)N[C@H](C)c4cccc(Br)c4)c(C(F)(F)F)c3)c2cc1OC [Example 60, N-[(1R)-1-(3-Bromophenyl)ethyl]-N′-[4-[(6,7-dimethoxy-4-quinolyl)oxy]-2-(trifluoromethyl)phenyl]urea]	1.9 nM	0 (KDR phosphorylation 50% inhibitory concentration [μM]/c-fms phosphorylation 50% inhibitory concentration [μM] was less than 5)
COc1cc2nccc(Oc3ccc(NC(=O)N[C@H](C)c4cccc(Br)c4)cc3OC)c2cc1OC [Example 61, N-[(1R)-1-(3-Bromophenyl)ethyl]-N′-{4-[(6,7-dimethoxy-4-quinolyl)oxy]-3-methoxyphenyl}urea]	19.2 nM	0 (KDR phosphorylation 50% inhibitory concentration [μM]/c-fms phosphorylation 50% inhibitory concentration [μM] was less than 5)
COc1cc2nccc(Oc3ccc(NC(=O)N[C@H](C)c4cccc(Br)c4)c(C)c3C)c2cc1OC [Example 62, N-[(1R)-1-(3-Bromophenyl)ethyl]-N′-{4-[(6,7-dimethoxy-4-quinolyl)oxy]-2,3-dimethylphenyl}urea]	2.7 nM	0 (KDR phosphorylation 50% inhibitory concentration [μM]/c-fms phosphorylation 50% inhibitory concentration [μM] was less than 5)
COc1cc2nccc(Oc3ccc(NC(=O)N[C@H](C)c4cccc(Br)c4)c(F)c3)c2cc1OC [Example 63, N-[(1R)-1-(3-Bromophenyl)ethyl]-N′-{4-[(6,7-dimethoxy-4-quinolyl)oxy]-2-fluorophenyl}urea]	2.6 nM	0 (KDR phosphorylation 50% inhibitory concentration [μM]/c-fms phosphorylation 50% inhibitory concentration [μM] was less than 5)
COc1cc2c(Oc3ccc(NC(=O)NC(C)c4ccc(F)cc4)cc3F)ccnc2cc1OCCCN1CCOCC1 (stereo not shown) [Example 64, N-(3-Fluoro-4-{[6-methoxy-7-(3-morpholinopropoxy)-4-quinolyl]oxy}phenyl)-N′-[1-(4-fluorophenyl)ethyl]urea]	9.8 nM	0 (KDR phosphorylation 50% inhibitory concentration [μM]/c-fms phosphorylation 50% inhibitory concentration [μM] was less than 5)
COc1cc2c(Oc3ccc(NC(=O)NC(C)c4ccc(F)c(F)c4)cc3F)ccnc2cc1OCCCN1CCOCC1 (stereo not shown) [Example 65, N-[1-(3,4-Difluorophenyl)ethyl]-N′-(3-fluoro-4-{[6-methoxy-7-(3-morpholinopropoxy)-4-quinolyl]oxy}phenyl)urea]	31.9 nM	0 (KDR phosphorylation 50% inhibitory concentration [μM]/c-fms phosphorylation 50% inhibitory concentration [μM] was less than 5)
COc1cc2c(Oc3ccc(NC(=O)NC(C)c4ccc(F)cc4F)cc3F)ccnc2cc1OCCCN1CCOCC1 (stereo not shown) [Example 66, N-[1-(2,4-Difluorophenyl)ethyl]-N′-(3-fluoro-4-{[6-methoxy-7-(3-morpholinopropoxy)-4-quinolyl]oxy}phenyl)urea]	16.5 nM	0 (KDR phosphorylation 50% inhibitory concentration [μM]/c-fms phosphorylation 50% inhibitory concentration [μM] was less than 5)
COc1cc2c(Oc3ccc(NC(=O)NC(C)c4ccc(F)cc4)c(F)c3)ccnc2cc1OCCCN1CCOCC1 (stereo not shown) [Example 67, N-(2-Fluoro-4-{[6-methoxy-7-(3-morpholinopropoxy)-4-quinolyl]oxy}phenyl)-N′-[1-(4-fluorophenyl)ethyl]urea]	2.9 nM	0 (KDR phosphorylation 50% inhibitory concentration [μM]/c-fms phosphorylation 50% inhibitory concentration [μM] was less than 5)

More lines, main results first:

IC50	SMILES	Selection ratio (KDR phosphorylation IC50 / c-fms phosphorylation IC50)
5.6 nM	COc1cc2c(Oc3ccc(NC(=O)NC(C)c4ccc(F)c(F)c4)c(F)c3)ccnc2cc1OCCCN1CCOCC1 (stereo not shown) [Example 68, N-[1-(3,4-Difluorophenyl)ethyl]-N′-(2-fluoro-4-{[6-methoxy-7-(3-morpholinopropoxy)-4-quinolyl]oxy}phenyl)urea]	0 (KDR phosphorylation 50% inhibitory concentration [μM]/c-fms phosphorylation 50% inhibitory concentration [μM] was less than 5)
5.2 nM	COc1cc2c(Oc3ccc(NC(=O)NC(C)c4ccc(F)cc4F)c(F)c3)ccnc2cc1OCCCN1CCOCC1 (stereo not shown) [Example 69, N-[1-(2,4-Difluorophenyl)ethyl]-N′-(2-fluoro-4-{[6-methoxy-7-(3-morpholinopropoxy)-4-quinolyl]oxy}phenyl)urea]	0 (KDR phosphorylation 50% inhibitory concentration [μM]/c-fms phosphorylation 50% inhibitory concentration [μM] was less than 5)
55.1 nM	COc1cc2nccc(Oc3ccc(NC(=O)NC(C)c4nccs4)c(F)c3)c2cc1OC (stereo not shown) [Example 70, N-{4-[(6,7-Dimethoxy-4-quinolyl)oxy]-2-fluorophenyl}-N′-[1-(1,3-thiazol-2-yl)ethyl]urea]	2 (when the value was 10 or more)
39.9 nM	COc1cc2nccc(Oc3ccc(NC(=O)N[C@@H](C)c4nccs4)c(F)c3)c2cc1OC [Example 71, N-{4-[(6,7-Dimethoxy-4-quinolyl)oxy]-2-fluorophenyl}-N′-[(1S)-1-(1,3-thiazol-2-yl)ethyl]urea]	2 (when the value was 10 or more)
35.6 nM	COc1cc2nccc(Oc3ccc(NC(=O)N[C@H](C)c4nccs4)c(F)c3)c2cc1OC [Example 72, N-{4-[(6,7-Dimethoxy-4-quinolyl)oxy]-2-fluorophenyl}-N′-[(1R)-1-(1,3-thiazol-2-yl)ethyl]urea]	1 (when the value was 5 or more)
43.3 nM	COc1cc2nccc(Oc3ccc(NC(=O)NC(C)c4nccs4)cc3F)c2cc1OC (stereo not shown) [Example 73, N-{4-[(6,7-Dimethoxy-4-quinolyl)oxy]-3-fluorophenyl}-N′-[1-(1,3-thiazol-2-yl)ethyl]urea]	2 (when the value was 10 or more)
